In general, IC50 refers to the concentration at which inhibition is half-maximal. The clearance is the rate of elimination divided by the concentration. Higher therefore signals a high capacity for elimination. As a reminder, the bioavailability is the share of a dose that reaches the circulation, judged against a reference dose that is usually intravenous.

The record followed here is ChEMBL document CHEMBL1135069, “The discovery of acylated beta-amino acids as potent and orally bioavailable VLA-4 antagonists” (Bioorg Med Chem Lett, 2002).

For series [1], the target named is T1, Integrin alpha-4/beta-1 (Homo sapiens, UniProt P05556+P13612). As to the kind of experiment: Inhibitory activity against alpha-4 beta-1 receptor (VLA-4) in human RPMI-8866 cells using [125I]-VCAM-Ig ligand. The format is cell-based.
Another series can be described thus: in vivo. As to conditions: Sprague-Dawley, rat, plasma, iv, 1 mg/kg.
Series [2] is described as follows: Bioavailability in rat (dose 1 mg/kg i.v. and 2 mg/kg p.o.). As to conditions: in vivo, po, F.
Series [3] deals with T1, Integrin alpha-4/beta-1. The series is described as follows: Inhibition of [125I]VCAM-Ig binding to alpha4-beta1 (VLA-4) of human RPMI-8866 cells. In kind it is cell-based.
A further series is filed under the species Rattus norvegicus. As to conditions: in vivo, iv, 1 mg/kg.

T1 sequence (P05556 whole entry): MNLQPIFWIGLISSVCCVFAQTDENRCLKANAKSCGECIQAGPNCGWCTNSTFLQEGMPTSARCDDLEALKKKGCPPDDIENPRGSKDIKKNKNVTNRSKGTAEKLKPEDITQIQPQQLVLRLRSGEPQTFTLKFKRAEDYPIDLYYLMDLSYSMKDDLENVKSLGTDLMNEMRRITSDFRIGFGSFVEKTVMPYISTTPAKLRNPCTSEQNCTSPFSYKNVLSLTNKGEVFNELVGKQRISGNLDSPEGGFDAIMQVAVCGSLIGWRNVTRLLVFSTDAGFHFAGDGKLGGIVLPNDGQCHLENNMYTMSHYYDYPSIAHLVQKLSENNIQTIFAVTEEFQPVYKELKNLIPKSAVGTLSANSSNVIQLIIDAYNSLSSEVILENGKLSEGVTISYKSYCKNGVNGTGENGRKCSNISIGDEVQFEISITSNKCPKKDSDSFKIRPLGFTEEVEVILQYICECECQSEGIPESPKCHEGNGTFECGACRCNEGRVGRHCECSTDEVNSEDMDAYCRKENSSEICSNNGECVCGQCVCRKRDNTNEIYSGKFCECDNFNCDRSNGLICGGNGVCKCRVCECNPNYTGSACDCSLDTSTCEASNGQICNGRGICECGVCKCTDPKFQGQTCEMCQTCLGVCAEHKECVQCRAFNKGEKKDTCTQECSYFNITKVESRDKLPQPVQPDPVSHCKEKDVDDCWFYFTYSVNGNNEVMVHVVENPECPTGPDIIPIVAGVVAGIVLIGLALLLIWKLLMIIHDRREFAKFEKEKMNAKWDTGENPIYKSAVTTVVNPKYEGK
T1 sequence (P13612 whole entry): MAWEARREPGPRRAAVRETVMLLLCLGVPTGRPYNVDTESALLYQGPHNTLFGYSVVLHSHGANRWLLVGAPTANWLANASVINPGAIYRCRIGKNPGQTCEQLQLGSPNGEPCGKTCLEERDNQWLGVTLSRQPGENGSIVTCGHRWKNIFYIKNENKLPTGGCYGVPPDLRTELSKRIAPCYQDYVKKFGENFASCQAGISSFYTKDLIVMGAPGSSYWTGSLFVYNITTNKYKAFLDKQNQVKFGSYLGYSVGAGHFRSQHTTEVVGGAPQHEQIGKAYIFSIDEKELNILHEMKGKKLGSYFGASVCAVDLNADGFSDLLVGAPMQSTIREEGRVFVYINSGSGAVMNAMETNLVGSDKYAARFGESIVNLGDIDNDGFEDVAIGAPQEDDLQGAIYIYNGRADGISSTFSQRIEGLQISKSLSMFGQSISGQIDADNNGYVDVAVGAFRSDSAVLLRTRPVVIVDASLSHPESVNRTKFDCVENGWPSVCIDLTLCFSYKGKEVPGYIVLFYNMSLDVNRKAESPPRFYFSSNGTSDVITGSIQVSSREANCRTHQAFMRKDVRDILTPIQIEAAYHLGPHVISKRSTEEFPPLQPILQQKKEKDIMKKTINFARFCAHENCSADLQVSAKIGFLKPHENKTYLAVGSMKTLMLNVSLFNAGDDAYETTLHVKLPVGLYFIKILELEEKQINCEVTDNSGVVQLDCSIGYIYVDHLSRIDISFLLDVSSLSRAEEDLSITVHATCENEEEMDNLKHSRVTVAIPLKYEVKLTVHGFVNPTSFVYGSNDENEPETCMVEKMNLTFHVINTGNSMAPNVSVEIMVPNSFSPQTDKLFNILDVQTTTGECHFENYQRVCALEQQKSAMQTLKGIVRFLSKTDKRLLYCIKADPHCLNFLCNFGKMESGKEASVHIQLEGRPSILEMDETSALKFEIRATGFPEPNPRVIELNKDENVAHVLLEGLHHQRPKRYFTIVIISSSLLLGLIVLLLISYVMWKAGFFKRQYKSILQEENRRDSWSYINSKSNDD

On Integrin alpha-4/beta-1 [1], `O=C(O)C[C@@H](NC(=O)[C@@H]1CCCN1S(=O)(=O)c1cc(Cl)cc(Cl)c1)c1ccc(O)cc1` yielded an IC50 of 0.74 nM. In the series “in vivo”, this molecule registered a clearance of 22 mL/min/kg.
Consider `O=C(O)C[C@@H](NC(=O)[C@@H]1CCN1S(=O)(=O)c1cc(Cl)cc(Cl)c1)c1ccc(Cl)c(F)c1`, for which it took 11 nM to reach half-maximal inhibition against Integrin alpha-4/beta-1 [1] (IC50). That is a double-digit nanomolar value.
Consider `O=C(O)C[C@@H](NC(=O)[C@@H]1CCN1S(=O)(=O)c1cc(Cl)cc(Cl)c1)c1ccc(OCF)cc1`, for which the IC50 on Integrin alpha-4/beta-1 [1] was determined as 0.72 nM.
Consider `O=C(O)CCNC(=O)[C@@H]1CCCN1S(=O)(=O)c1cc(Cl)cc(Cl)c1`, for which the IC50 at Integrin alpha-4/beta-1 [1] was determined as 1510 nM.
For the molecule `O=C(O)C[C@@H](NC(=O)[C@@H]1CCN1S(=O)(=O)c1cc(Cl)cc(Cl)c1)c1ccc(OC2CC2)cc1`, on Integrin alpha-4/beta-1 [1], the IC50 was 0.31 nM. Moreover, the clearance in the series “in vivo” was found to be 70 mL/min/kg.
Consider `O=C(O)C[C@@H](NC(=O)[C@@H]1CCN1S(=O)(=O)c1cc(Cl)cc(Cl)c1)c1ccc(OC(F)F)cc1`, for which the IC50 against Integrin alpha-4/beta-1 [1] was 1.3 nM.
`CS(=O)(=O)c1ccc([C@@H](CC(=O)O)NC(=O)[C@@H]2CCCN2S(=O)(=O)c2cc(Cl)cc(Cl)c2)cc1` had an IC50 against Integrin alpha-4/beta-1 [1] of 0.55 nM. In “in vivo”, this molecule yielded a clearance of 92 mL/min/kg.
In series [2], `COc1ccc([C@](C)(CC(=O)O)NC(=O)[C@@H]2CCN2S(=O)(=O)c2cc(Cl)cc(Cl)c2)cc1` registered a bioavailability of 19%. Moreover, at Integrin alpha-4/beta-1 [1], the IC50 was 26 nM. In addition, the clearance in the series “in vivo” was determined as 46 mL/min/kg.
In turn, `O=C(O)C[C@@H](NC(=O)[C@@H]1CCN1S(=O)(=O)c1cc(Cl)cc(Cl)c1)c1ccc(Br)cc1` showed an IC50 at Integrin alpha-4/beta-1 [1] of 2.1 nM.
In turn, `Cc1ccccc1NC(=O)Nc1ccc(CN[C@@H](CC(C)C)C(=O)N[C@@H](CC(=O)O)c2ccc3c(c2)OCO3)cc1` gave an IC50 on Integrin alpha-4/beta-1 [1] of 3 nM. The IC50 values of the last two molecules are within 1.5-fold of each other.
Still for that read-out and setting: with `CC(C)[C@H](CC(=O)O)NC(=O)[C@@H]1CCCN1S(=O)(=O)c1cc(Cl)cc(Cl)c1` the figure was 362 nM; with `O=C(O)C[C@H](Cc1ccccc1)NC(=O)[C@@H]1CCCN1S(=O)(=O)c1cc(Cl)cc(Cl)c1`, 22 nM.
In turn, `O=C(O)C[C@@H](NC(=O)[C@@H]1CCCN1S(=O)(=O)c1cc(Cl)cc(Cl)c1)c1ccc(OC2CC2)cc1` showed an IC50 against Integrin alpha-4/beta-1 [1] of 0.85 nM. The same molecule returned a clearance in the series “in vivo” of 26 mL/min/kg.
Consider `O=C(O)C[C@@H](NC(=O)[C@@H]1CCN1S(=O)(=O)c1cc(Cl)cc(Cl)c1)c1ccc(F)cc1`, for which it took 3.2 nM to reach half-maximal inhibition on Integrin alpha-4/beta-1 [1] (IC50).
Same read-out and setting: the figure for `O=C(O)[C@H](Cc1ccccc1)NC(=O)[C@@H]1CCCN1S(=O)(=O)c1cc(Cl)cc(Cl)c1` is 1.4 nM.
In the case of `CCOc1ccc([C@@H](CC(=O)O)NC(=O)[C@@H]2CCCN2S(=O)(=O)c2cc(Cl)cc(Cl)c2)cc1`, the IC50 on Integrin alpha-4/beta-1 [1] was determined as 0.27 nM. For the same molecule, in “in vivo”, the clearance is 40 mL/min/kg.
Take `O=C(O)C[C@@H](NC(=O)[C@@H]1CCCN1S(=O)(=O)c1cc(Cl)cc(Cl)c1)c1ccc(OC(F)(F)F)cc1`: the IC50 at Integrin alpha-4/beta-1 [1] was determined as 2.6 nM. For the same molecule, the clearance in “in vivo” was 22 mL/min/kg.
For the molecule `O=C(O)C[C@@H](NC(=O)[C@@H]1CCN1S(=O)(=O)c1cc(Cl)cc(Cl)c1)c1ccc(Oc2ccccc2)cc1`, on Integrin alpha-4/beta-1 [1], the midpoint of inhibition, the IC50, lay at 3.1 nM.
At Integrin alpha-4/beta-1 [1], `COc1ccc([C@@H](CC(=O)O)NC(=O)[C@]2(C)CCN2S(=O)(=O)c2cc(Cl)cc(Cl)c2)cc1` returned an IC50 of 1.5 nM. The clearance in “in vivo” was determined as 7 mL/min/kg.
At Integrin alpha-4/beta-1 [1], `O=C(O)C[C@H](NC(=O)[C@@H]1CCCN1S(=O)(=O)c1cc(Cl)cc(Cl)c1)c1ccccc1` came in with an IC50 of 544 nM.
On the same count and under the same terms, with `C/C=C/[C@@H](CC(=O)O)NC(=O)[C@@H]1CCCN1S(=O)(=O)c1cc(Cl)cc(Cl)c1` the figure was 13 nM; with `CC(C)(C)Oc1ccc([C@@H](CC(=O)O)NC(=O)[C@@H]2CCCN2S(=O)(=O)c2cc(Cl)cc(Cl)c2)cc1`, 0.53 nM.
`O=C(O)C[C@@H](NC(=O)[C@@H]1CCN1S(=O)(=O)c1cc(Cl)cc(Cl)c1)c1ccccc1`: at Integrin alpha-4/beta-1 [3], the IC50 came to 2.4 nM. This molecule also yielded a clearance in the series “in vivo” of 27 mL/min/kg.
As to `COc1ccc([C@@H](CC(=O)O)NC(=O)[C@@H]2CCN2S(=O)(=O)c2cc(Cl)cc(Cl)c2)cn1`, 3 nM corresponded to half-maximal inhibition against Integrin alpha-4/beta-1 [1] (IC50). The molecule also showed a clearance in “in vivo” of 55 mL/min/kg.
Turning to `O=C(O)C[C@@H](NC(=O)[C@@H]1CCN1S(=O)(=O)c1cc(Cl)cc(Cl)c1)c1ccc(OCC(F)(F)F)cc1`, the bioavailability in series [2] was 38%. This molecule gave an IC50 against Integrin alpha-4/beta-1 [1] of 1.4 nM. For the same molecule, the clearance in the series “in vivo” was 43 mL/min/kg.
With `CC(C)[C@@H](CC(=O)O)NC(=O)[C@@H]1CCCN1S(=O)(=O)c1cc(Cl)cc(Cl)c1`, the IC50 against Integrin alpha-4/beta-1 [1] amounted to 8.9 nM.
With `O=C(O)C[C@@H](NC(=O)[C@@H]1CCN1S(=O)(=O)c1cc(Cl)cc(Cl)c1)c1ccc(OC2CCCC2)cc1`, 0.5 nM corresponded to half-maximal inhibition on Integrin alpha-4/beta-1 [1] (IC50). In addition, the clearance in “in vivo” was 165 mL/min/kg.
In the case of `COc1ccc([C@@H](CC(=O)O)NC(=O)[C@@H]2CCN2S(=O)(=O)c2cc(Cl)cc(Cl)c2)cc1` (stereo in doubt; 6g), on Integrin alpha-4/beta-1 [1], the IC50 was 0.39 nM. This molecule had a clearance in the series filed under Rattus norvegicus of 39 mL/min/kg.
The matching figures for `COc1ccc([C@@H](CC(=O)O)NC(=O)[C@@H]2CCN2S(=O)(=O)c2cc(Cl)cc(Cl)c2)cc1` (stereo in doubt; 7g): 0.49 nM and 17 mL/min/kg.
